Molecules are shown by their SMILES.

This data set relates to skin. The data set is described as follows: Patch test for skin irritation and allergy. Type of data set: in vivo, human. The note with it: positive control. Here is the method:
These three emulsions were first evaluated for skin irritation and allergy studies using a patch test at a third-party skin care evaluation lab. The three pure emulsion formulas were tested at 20 mg/mL concentration on the patch on 55 subjects.
The patches were prepared with each of the 3 different emulsion types separately. Each emulsion was prepared at 20 mg/g. The test was focused on the effects of the emulsion without the influence of any other skin care ingredients. The goal was to stress test if pure emulsion can cause any skin irritation. […]
Below is the procedure of the patch test: • Step 1: Subjects were requested to bathe or wash as usual before arrival at the facility. • Step 2: Patches containing the test material were then affixed directly to the skin of the intrascapular regions of the back, to the right or left of the midline, and subjects were dismissed with instructions not to wet or expose the test area to direct sunlight. • Step 3: Patches remained in place for 48 hours after the first application. […] Test sites were evaluated by trained laboratory personnel 48 and 96 hours after application. • Step 7: In the event of an adverse reaction, the area of erythema and edema were measured. […]

Regarding `CCCCCCCCCCCCOS(=O)(=O)[O-].[Na+]` [2.0% Sodium Lauryl Sulfate Solution, Sodium Lauryl Sulfate], the “subjects with a Grade 1 reaction” value worked out at 8 subjects.

The values above are taken from patent publication US20240342066A1, “HIGH POTENCY EMULSIONS” (Vertosa Inc., priority 0001, published 2024).
